Where a SMILES comes first, the peptide text is derived from it. Bridges are numbered along the chain shown (N, C = ends).
Columns and labels:
[1] = test system: amyloride-sensitive Na/H co-transporter on LLC-PK1 cells; assay: Incorporation of sodium ion (22Na) in LLC-PK1 cells, with or without EIPA; type: cell-based, pig; conditions: 10 minutes
Experimental: A culture solution of LLC-PK1 cells was substituted with a Hanks' choline chloride solution, CRSP and sodium chloride having a predetermined radioactivity (^22Na) were added thereto so as to make the final concentration 0 M, 10^−8 M, 10^−7 M and 10^−6 M each, the cells were washed after 10 minutes so that ^22Na contained in the solution outside the cells was completely removed and radioactivity incorporated into the cells was measured by a gamma-counter. Similarly, a culture solution of LLC-PK1 cells was substituted with a Hanks' choline chloride solution, sodium chloride having a predetermined radioactivity (^22Na) as well as CRSP and an amyloride derivative (5-(N-ethyl-N-isopropyl)-amiloride) (EIPA) which is an Na/H co-transporter inhibitor were added thereto so as to make the final concentration 0 M CRSP+0 M EIPA, 10^−6 M CRSP+0 M EIPA, 10^−6 M CRSP+10^−8 M EIPA, 10^−6 M CRSP+10^−7 M EIPA, 10^−6 M CRSP+10^−6 M EIPA and 0 M CRSP+10^−6 M EIPA each. Cells were washed after 10 minutes so that ^22Na contained in the outer solution of the cells was completely removed and radioactivity incorporated into the cells was measured by a gamma-counter.
The results are shown in FIG. 5 (incorporation of sodium ion in the absence of EIPA), FIG. 6 (incorporation of sodium ion in the presence of EIPA) and FIG. 7 (incorporation of calcium ion). […]

[2] = test system: LLC-PK1 cells; assay: cAMP production in LLC-PK1 cells (radioimmunoassay); type: cell-based, pig; conditions: ratio of ED50
Experimental: CRSP dissolved in DMEM was added to a medium for LLC-PK1 cells and amount of cAMP secreted therefrom was quantified by means of radioimmunoassay using a cAMP-specific antibody.
LLC-PK1 cells were incubated in a culture medium (a Dulbecco-modified Eagle medium (DMEM) containing 10% of fetal calf serum (FCS)), CRSP dissolved in DMEM containing 0.05% of bovine serum albumin was substituted for a culture medium for the cells after two days, incubation was conducted for 30 minutes, the medium was recovered and amount of the secreted cAMP was quantified by radioimmunoassay using a cAMP-specific antibody.

[3] = Calcium concentration in plasma of anesthetized rats; type: in vivo; conditions: rat, 16 nmol/kg from jugular vein
Experimental: CRSP corresponding to an amount of 16 nmol/kg dissolved in a physiological saline solution was administered at a time within a short period from jugular vein of rat under an anesthetized condition and calcium concentration in the plasma and blood pressure were measured. The results are shown in FIG. 13 (changes in calcium concentration in blood by administration of CRSP) and FIG. 14 (changes in blood pressure by administration of CRSP).
CRSP corresponding to the amount of 16 nmol/kg dissolved in a physiological saline solution was administered at a time within short period from […] of rat under an anesthetized condition.

[4] = molecular target: T1, Pig calcitonin receptor (CTR) (Sus scrofa, UniProt P25117); assay: cAMP production in opossum renal epithelial cells (OK cells) expressing CTR; type: cell-based; conditions: CTR expressed in OK cells
T1 construct: expressed in transfected cells; host or cells: COS-7 (given as rhesus monkey renal cells), vector pcDNA 3.1
T1 sequence (P25117 30-498): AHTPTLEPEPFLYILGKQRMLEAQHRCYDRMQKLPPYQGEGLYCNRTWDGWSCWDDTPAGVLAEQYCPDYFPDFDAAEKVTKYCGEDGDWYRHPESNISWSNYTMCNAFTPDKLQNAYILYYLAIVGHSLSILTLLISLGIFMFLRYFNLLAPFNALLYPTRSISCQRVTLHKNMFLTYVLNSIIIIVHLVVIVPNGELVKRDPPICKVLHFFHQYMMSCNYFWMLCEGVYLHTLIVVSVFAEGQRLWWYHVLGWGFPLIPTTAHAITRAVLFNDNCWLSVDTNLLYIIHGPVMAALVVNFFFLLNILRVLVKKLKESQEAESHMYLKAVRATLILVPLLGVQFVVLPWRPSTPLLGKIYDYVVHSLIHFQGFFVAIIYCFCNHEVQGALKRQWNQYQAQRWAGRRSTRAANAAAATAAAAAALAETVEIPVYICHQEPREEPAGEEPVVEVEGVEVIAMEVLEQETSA
Experimental: Pig calcitonin receptor (CTR) was introduced into a mammalian expression vector pcDNA 3.1, expressed in rhesus monkey renal cells (COS-7) and production amount of cAMP by stimulation of CRSP was measured by radioimmunoassay. Similarly, CTR was expressed in opossum renal cells (OK cells) and production amount of cAMP by stimulation of CRSP was measured by radioimmunoassay while incorporation of sodium ion was measured by measuring the incorporation of sodium chloride having radioactivity (^22Na) by a gamma-counter. The results are shown in FIG. 10 (changes in cAMP productivity by CRSP stimulation in cells (COS-7) where calcitonin receptor was expressed in a genetic engineering manner), FIG. 11 (changes in cAMP productivity in opossum renal epithelial cells where pig calcitonin receptor (CTR) was expressed) and FIG. 12 (changes in incorporation of sodium ion in opossum renal epithelial cells where pig calcitonin receptor (CTR) was expressed).
Similarly, CTR was expressed in opossum renal cells (OK cells) and production amount of cAMP by CRSP stimulation was measured by radioimmunoassay while incorporation of sodium ion was measured by incorporation of radioactive sodium chloride (^22Na) using a gamma-counter.

For CSCC[C@H](NC(=O)[C@H](CCCCN)NC(=O)[C@@H](NC(=O)[C@@H]1CCCN1C(=O)[C@H](CC(C)C)NC(=O)[C@H](CC(C)C)NC(=O)[C@H](CC(N)=O)NC(=O)[C@H](CO)NC(=O)[C@H](CCCNC(=N)N)NC(=O)[C@@H](NC(=O)[C@H](CCSC)NC(=O)[C@H](CO)NC(=O)CNC(=O)[C@H](CO)NC(=O)[C@H](CCCNC(=N)N)NC(=O)[C@H](CO)NC(=O)[C@H](CC(C)C)NC(=O)[C@H](CC(C)C)NC(=O)CNC(=O)[C@@H](NC(=O)[C@H](CC(C)C)NC(=O)[C@H](CCCNC(=N)N)NC(=O)[C@H](Cc1c[nH]cn1)NC(=O)[C@@H](NC(=O)[C@H](CCSC)NC(=O)[C@@H]1CSSC[C@H](NC(=O)[C@@H](N)CO)C(=O)N[C@@H](CC(N)=O)C(=O)N[C@@H]([C@@H](C)O)C(=O)N[C@@H](C)C(=O)N[C@@H]([C@@H](C)O)C(=O)N1)[C@@H](C)O)C(C)C)C(C)C)[C@@H](C)O)C(=O)NCC(=O)N[C@@H](Cc1ccccc1)C(=O)N[C@@H](CCCCN)C(=O)N[C@H](C(=O)N[C@@H](Cc1ccccc1)C(=O)NCC(N)=O)C(C)C [CRSP] (H-SCNTATCMTHRLVGLLSRSGSMVRSNLLPTKMGFKVFG-NH2; disulfide 2-7), the “incorporation of sodium into cells” value ([1]; 10^-8 to 10^-6 M) was “promoted”, the “amyloride-sensitive Na/H co-transporter” value [1] was “activated” and the “activity stronger than pig CGRP” value [2] was “about 40 fold”. The “activity stronger than pig calcitonin” value [2] was “about 6 fold”, the “calcium concentration in plasma” value [3] was “transiently lowered” and the “intracellular adenylyl cyclase activity” value [4] was “increases”.

Source: patent US20050256302A1, “Novel peptides having camp producing activity” (Japan Science and Technology Agency, priority 2002, published 2005)
